Values quoted from earlier work in patent US9375001B1, “Granular fly bait” (Wellmark International, priority 2012, dated 2016).
Read-outs that look alike come from different tables or passages of the source.

OC[C@H]1O[C@@](CO)(O[C@H]2O[C@H](CO)[C@@H](O)[C@H](O)[C@H]2O)[C@@H](O)[C@@H]1O [Sucrose]
Solubility of Sucrose in Water, Sucrose/water (50 ° C.): 2.59 wt/wt
Solubility of Sucrose in Water, Sucrose/water (55 ° C.): 2.73 wt/wt
Solubility of Sucrose in Water, Sucrose/water (60 ° C.): 2.89 wt/wt
Solubility of Sucrose in Water, Sucrose/water (65 ° C.): 3.06 wt/wt
Solubility of Sucrose in Water, Sucrose/water (70 ° C.): 3.25 wt/wt
Solubility of Sucrose in Water, Sucrose/water (75 ° C.): 3.46 wt/wt
Solubility of Sucrose in Water, Sucrose/water (80 ° C.): 3.69 wt/wt
Solubility of Sucrose in Water, Sucrose/water (85 ° C.): 3.94 wt/wt
Solubility of Sucrose in Water, Sucrose/water (90 ° C.): 4.20 wt/wt
